# From US9662322B2 (TEVA PHARMACEUTICAL INDUSTRIES, LTD., priority 2014, dated 2017)
# Test system: subjects with relapsing remitting multiple sclerosis (RRMS)
# Experiment: ALLEGRO Phase III trial: safety and tolerability
# Assay type: in vivo, human
# Method: The following assessments were performed at specified time points: • 1. Vital signs were measured at each study visit. • 2. A physical examination is performed at months −1 (screening), 0 (baseline) 1, 3, 6, 12, 18 and 24 (termination/early discontinuation core study). In case of the 6 months extended study, additional examination was performed at month 30 (termination/early discontinuation of extended study). • 3. The following safety clinical laboratory tests were performed: • a. Complete blood count (CBC) with differential—at all scheduled visits. A reticulocyte count was added to the CBC at months 0 (baseline) and 24/30 (termination/early discontinuation). • b. Serum chemistry (including electrolytes, liver enzymes, direct and total bilirubin and pancreatic amylase and CPK), and urinalysis—at all scheduled visits. • c. A rapid urine β-hCG test was performed in women of child-bearing potential at baseline (month 0) and at each scheduled study visit thereafter (at site). • d. β-hCG in women of child-bearing potential was performed at all scheduled visits. • e. Starting after visit Month 3 a rapid urine β-hCG test was performed in women of child-bearing potential every 28 (±2) days. The subject was contacted by telephone within 72 hours after the test was scheduled to be performed and asked specific questions regarding the test. In case of suspected pregnancy (positive urine β-hCG test result), the caller made sure that the study drug has been discontinued and the subject was instructed to arrive at the site as soon as possible with all study drugs. • 4. Markers of inflammation (serum conventional C-reactive protein and fibrinogen)—at screening, baseline and all scheduled visits thereafter. • 5. During the first 3 months periodical phone calls were placed by the site personnel every two weeks. […] ECG was performed at months −1 (screening; additional recording, up to 30 minutes apart is performed if QTc is […] 450 msec), (baseline; three recordings, 15 minutes apart), 1, 2, 3, 6, 12, 18 and 24 (termination/early discontinuation). In case of the 6 months extended study, ECG is performed at month 30 (termination/early discontinuation of the extended study). • 7. Chest X-ray is performed at months −1 (screening), (if not performed within 7 months prior to the screening visit). • 8. Adverse Events (AEs) are monitored throughout the study. • 9. Concomitant medications are monitored throughout the study. • 10. Neurological evaluations, including Expanded Disability Status Scale (EDSS), 25 foot walk test/Ambulation Index (AI), Functional systems (FS) are performed at months −1 (screening), 0 (baseline) and every 3 months during the study and the extended study period. • 11. MS functional Composite (MSFC) was assessed at months −1 (screening) (three practices for training purposes only), at month 0 (baseline), 6, 12, 18 and 24 (termination/early discontinuation). In case of the 6 months extended study, the last MSFC was performed at months 30 (termination/early discontinuation of the extended study). • 12. Subject-reported fatigue was assessed by the Modified Fatigue Impact Scale (MFIS) at months 0, 6, 12, 18, and 24 (termination/early discontinuation). In case of the 6 months extended study, additional MFIS was performed at month 30 (termination/early discontinuation of the extended study). • 13. The general health status was assessed by the EuroQoL (EQ5D) questionnaire at month 0 (baseline) and month 24 (termination/early discontinuation of the study). In case of the 6 months extended study, the last EuroQoL (EQ5D) was performed at month 30 (termination/early discontinuation of the extended study) instead of month 24. • 14. The general health status was assessed by the Short-Form general health survey (SF-36) subject-reported questionnaire at month 0 (baseline) and every 6 months thereafter, until termination/early discontinuation. • 15. […]
smiles,measurement,setting,value
"CCN(C(=O)c1c(O)c2c(Cl)cccc2n(C)c1=O)c1ccccc1 [Laquinimod, laquinimod]",Deaths,"0.6 mg daily, 24 months",No deaths
same,"ALT elevations ≧5×ULN, patients","human, in vivo, 24 months",8
same,"Abdominal pain, % of patients","human, in vivo, 24 months",5.8%
same,"Adverse events, number","human, in vivo, 24 months",3309
same,Appendicitis,"human, in vivo, 24 months",5 cases
same,"Back pain, % of patients","human, in vivo, 24 months",16.4%
same,"Cough, % of patients","human, in vivo, 24 months",7.5%
same,Neoplasms,"human, in vivo, 24 months",8 cases
same,Patients reporting 1 or more adverse events,"human, in vivo, 24 months",87%
same,"Serious adverse events (SAEs) reported, total","human, in vivo, 24 months",122
same,"Shift to ALT ≧3×ULN and <5×ULN, % of patients","human, in vivo, 24 months",4.9%
same,"Study discontinuation associated with these adverse events (abdominal pain, back pain, cough)","human, in vivo, 24 months",3%
same,"Treatment discontinuation due to ALT≧3 and <5×ULN, patients","human, in vivo, 24 months",7
same,Liver failure,in vivo,no cases of liver failure
